Assays:
[1] = test system: BxPC3; test: Toxicity test against cultured cells (CCK-8); assay type: cell-based; details: Homo sapiens, BXPC-3, 48 hours, Val concentration, cell survival by CCK-8
Protocol: (§1) Human pancreatic adenocarcinoma cells (B×PC3 cells, Panc-cells, or MiaPaCa cells) were seeded into a 96-well plate (5,000 cells/well). After 24 hours, a Val-encapsulating polymeric micelle solution prepared by adding 0.3 equivalent of Val to PEG-P(Asp-BH) or Val alone was added at various Val concentrations. After 48 hours, the cells were washed with PBS, and a medium was added. After that, Cell Counting Kit-8 (CCK-8, 10 μL/well) was added to the medium, and 30 minutes later, UV absorbance at 450 nm was measured.

[2] = test system: MiaPaCa; test: Toxicity test against cultured cells (CCK-8); assay type: cell-based; details: Homo sapiens, MIA PaCa-2, 48 hours, Val concentration, cell survival by CCK-8
Protocol: as §1

[3] = test system: PANC-1; test: Toxicity test against cultured cells (CCK-8); assay type: cell-based; details: Homo sapiens, 48 hours, Val concentration, cell survival by CCK-8
Protocol: as §1

[4] = test system: subcutaneous tumor model mice (B×PC3); test: Antitumor effect on tumor-bearing mice; assay type: in vivo; details: 1.5 mg/kg intraperitoneally
Protocol: A Val-encapsulating polymeric micelle solution prepared by using PEG-P(Asp-BH) (administration amount of Val: 1.5 mg/kg), a valinomycin solution (1.5 mg/kg), or a gemcitabine solution (80 mg/kg) was intravenously administered (only the valinomycin solution was intraperitoneally administered) to the tail vein of subcutaneous tumor model mice (B×PC3) on day 0, day 2, and day 4, and the sizes of the tumors and the body weights of the mice after lapses of various times were measured (n=4).

## CC(C)[C@@H]1NC(=O)[C@H](C)OC(=O)[C@@H](C(C)C)NC(=O)[C@@H](C(C)C)OC(=O)[C@H](C(C)C)NC(=O)[C@H](C)OC(=O)[C@@H](C(C)C)NC(=O)[C@@H](C(C)C)OC(=O)[C@H](C(C)C)NC(=O)[C@H](C)OC(=O)[C@@H](C(C)C)NC(=O)[C@@H](C(C)C)OC1=O [Val, valinomycin]
[1]
  IC50: 12.5 nM
[2]
  IC50: 23.2 nM
[3]
  IC50: 8.3 nM
[4]
  death of all the mice, time after the initial administration: ≤ 24 h

— US12714754B2, “Delivery of cyclic compound by using carrier” (priority 2018, dated 2026)
